Results reported in patent publication US20040224910A1, “Recombinant nematode nicotinic receptor and uses” (priority 1999, published 2004).
“Also recorded” adds a separate entry of the source.

Target: T1, heterotrimeric UNC-63, UNC-29, LEV-1 receptor (Caenorhabditis elegans, UniProt P48181+Q27218+Q9N587)
T1 construct: used to generate a full length cDNA clone by 3′ RACE on Marathon cDNA; expressed in transfected cells; host or cells: Xenopus laevis oocytes (nuclear injection of pMT3 cDNA constructs)
T1 sequence (P48181 27-493): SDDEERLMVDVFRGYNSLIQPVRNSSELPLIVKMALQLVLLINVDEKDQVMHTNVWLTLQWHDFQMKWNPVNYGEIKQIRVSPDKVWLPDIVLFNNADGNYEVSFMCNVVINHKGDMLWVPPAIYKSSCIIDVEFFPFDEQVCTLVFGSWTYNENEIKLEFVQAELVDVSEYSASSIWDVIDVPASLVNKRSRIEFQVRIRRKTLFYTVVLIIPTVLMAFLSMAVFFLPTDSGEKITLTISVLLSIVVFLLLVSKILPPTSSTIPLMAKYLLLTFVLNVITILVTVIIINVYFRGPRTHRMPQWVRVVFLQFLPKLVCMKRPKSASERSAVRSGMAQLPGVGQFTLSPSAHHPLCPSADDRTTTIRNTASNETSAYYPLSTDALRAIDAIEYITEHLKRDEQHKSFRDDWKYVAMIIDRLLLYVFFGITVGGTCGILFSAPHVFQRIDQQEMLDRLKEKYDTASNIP
T1 sequence (Q27218 32-507): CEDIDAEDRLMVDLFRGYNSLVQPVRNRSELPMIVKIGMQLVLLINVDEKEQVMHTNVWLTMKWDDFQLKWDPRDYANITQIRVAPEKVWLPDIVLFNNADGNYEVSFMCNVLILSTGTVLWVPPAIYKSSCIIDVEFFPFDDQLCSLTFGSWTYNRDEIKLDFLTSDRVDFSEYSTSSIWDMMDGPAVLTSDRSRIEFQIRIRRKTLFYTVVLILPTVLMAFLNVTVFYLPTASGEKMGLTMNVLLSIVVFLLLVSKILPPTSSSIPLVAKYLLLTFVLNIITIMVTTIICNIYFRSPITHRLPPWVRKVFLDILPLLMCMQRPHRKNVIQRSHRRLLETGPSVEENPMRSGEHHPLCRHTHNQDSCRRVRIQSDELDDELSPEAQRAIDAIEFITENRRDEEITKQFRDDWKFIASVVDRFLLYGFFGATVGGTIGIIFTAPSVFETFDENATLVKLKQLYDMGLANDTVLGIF
T1 sequence (Q9N587 24-502): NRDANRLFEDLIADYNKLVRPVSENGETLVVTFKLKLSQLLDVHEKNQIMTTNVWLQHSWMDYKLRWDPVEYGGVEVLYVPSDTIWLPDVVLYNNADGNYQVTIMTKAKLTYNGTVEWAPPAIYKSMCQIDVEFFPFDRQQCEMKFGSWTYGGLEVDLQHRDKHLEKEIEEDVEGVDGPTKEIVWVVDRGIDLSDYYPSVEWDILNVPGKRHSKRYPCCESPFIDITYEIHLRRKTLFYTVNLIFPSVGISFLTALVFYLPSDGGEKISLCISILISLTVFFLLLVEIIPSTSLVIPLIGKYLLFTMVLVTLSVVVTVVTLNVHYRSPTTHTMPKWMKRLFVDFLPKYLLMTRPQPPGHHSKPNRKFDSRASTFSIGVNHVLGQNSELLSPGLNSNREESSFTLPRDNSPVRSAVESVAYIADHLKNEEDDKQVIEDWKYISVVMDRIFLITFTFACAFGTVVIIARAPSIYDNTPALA
Test: Two-electrode voltage-clamp of recombinant nAChR expressed in Xenopus laevis oocytes
Type: cell-based, C. elegans
Conditions: for agonist activity on the expressed receptor: holding potential -100 mV
Experimental: Ovaries were surgically removed from anaesthetised mature female Xenopus laevis. The follicle layers were manually removed from healthy stage V and VI oocytes following a 15 min incubation with collagenase (type IA, 2 mg ml^−1) in a calcium-free version of standard oocyte saline. The composition of SOS was as follows (mM): NaCl 100, KCl 2, CaCl2 1.8, MgCl2 1 and HEPES 5; pH 7.6. In calcium-free saline, the CaCl2 was replaced by 1.8 mM BaCl2. […] The nucleus of each oocyte was injected with 20 nl of DNA (0.1 μg μl^−1). The injected oocytes were transferred to incubation medium composed of SOS supplemented with penicillin (100 units ml^−1), streptomycin (100 μg ml^−1), gentamycin (50 μg ml^−1) and 2.5 mM sodium pyruvate and placed at 4° C. for 30 min immediately after injection to enable recovery. Oocytes were maintained at 16° C. for 2-4 days prior to electrophysiological studies.
Oocytes were restrained with entomological pins in a Perspex chamber (80 μl volume) with a Sylgard base and perfused continuously (5 ml min^−1) with SOS using a gravity-fed system. Membrane currents were measured by the two-electrode voltage-clamp method, using 3M KCl filled electrodes (resistance=0.5-5 MΩ) and either a Geneclamp amplifier (Axon Instruments). The oocyte membrane potential was clamped at −100 mV. Signals were digitized by a TL-1 interface (Axon Instruments, U.S.A).

Row | Compound | agonist activity on the expressed receptor (Xenopus oocytes) | block of the agonist action of levamisole (10 μM mecamylamine, Xenopus oocytes (FIG. 6)) | antagonism of ACh-induced currents (10 μM, Xenopus oocytes)
1 | CC(=O)OCC[N+](C)(C)C.[Cl-] [ACh, Acetylcholine chloride] | full agonist | – | –
2 | CNC1(C)C2CCC(C2)C1(C)C (centres unmarked) [Mecamylamine, mecamylamine] | – | blocked | effective antagonist
3 | c1ccc([C@H]2CN3CCSC3=N2)cc1 [levamisole] | partial agonists; also recorded: partial agonist activity | – | –
4 | CN1CCCC1c1cccnc1 (centres unmarked) [nicotine] | partial agonists; also recorded: partial agonist activity | – | –
